Measured values from patent US4215135A, “Antiinflammatory 2-substituted-1H-phenanthro[9,10-d]imidazoles” (E. I. Du Pont de Nemours and Company, priority 1979, dated 1980).

Test system: adjuvant-induced arthritis in rats
Assay: Established adjuvant-induced arthritis in rats (A.A.)
Type: in vivo, Charles River Lewis male rats
Conditions: Rattus norvegicus, 24 h; oral gavage, 7 daily doses; established adjuvant arthritis; uninjected left hind paw volume one day after last dose; read-out: A.A. ED50% (% paw volume reduction from control)

Row | SMILES | ED50 [mg/kg]
1 | CC(C)Cc1ccc(C(C)C(=O)O)cc1 (stereo not drawn) [Ibuprofen, reference compound] | 100
2 | CCCCC1C(=O)N(c2ccccc2)N(c2ccccc2)C1=O [Phenylbutazone, reference compound] | 10

Same assay, conditions: Rattus norvegicus, po, 24 h, read-out: A.A. ED50% (% paw volume reduction from control)

Row | SMILES | ED50 [mg/kg]
3 | CC(=O)Oc1ccccc1C(=O)O [Aspirin, reference compound] | 305
4 | FC(F)C(F)(F)Sc1nc2c3ccccc3c3ccccc3c2[nH]1 [Example 2, 2-[(1,1,2,2-tetrafluoroethyl)thio]-1H-phenanthro[9,10-d]imidazole] | > 25
5 | O=S(=O)(c1nc2c3ccccc3c3ccccc3c2[nH]1)C(F)(F)C(F)F [Example 3, 2-[(1,1,2,2-Tetrafluoroethyl)sulfonyl]-1H-phenanthro-[9,10-d]-imidazole] | 28
6 | Fc1ccc2c(c1)c1cc(F)ccc1c1[nH]c(SC(F)(F)C(F)F)nc21 [Example 7, 6,9-Difluoro-2-[(1,1,2,2-tetrafluoroethyl)thio]-1H-phenanthro-[9,10-d]imidazole] | 0.45
7 | O=S(=O)(c1nc2c3ccc(F)cc3c3cc(F)ccc3c2[nH]1)C(F)(F)C(F)F [Example 8, 6,9-Difluoro-2-[(1,1,2,2-tetrafluoroethyl)sulfonyl]-1H-phenanthro[9,10-d]imidazole] | 0.8
8 | COc1ccc2c(c1)c(CC(=O)O)c(C)n2C(=O)c1ccc(Cl)cc1 [Indomethacin, reference compound] | 0.3

Test system: phenylquinone-induced writhing (pain) in mice
Assay: Phenylquinone writhing test
Type: in vivo, female white mice
Conditions: Mus musculus; oral; phenylquinone i.p.; footnote: at 2 hours; read-out: ED50 (effective analgesic dose for 50% of the mice)
Experimental: A procedure for detecting and comparing the analgesic activity of compounds in this series and standard drugs for which there is a good correlation with human efficacy is the phenylquinone writhing test.
The phenylquinone writhing test, modified from Siegmund, et al., Proc. Soc. Exp. Biol. Med. 95, 729 (1957), was employed. A test compound suspended in 1% methylcellulose was given orally to fasted (17-21 hours) female white mice, 5-20 animals per double blind test. […] […] The effective analgesic dose for 50% of the mice (ED50) was calculated by the moving average method of Thompson, W. R., Bact. Rev. 11, 115-145 (1947).

Row | SMILES | ED50 [mg/kg]
9 | COc1ccc2c(c1)c1cc(OC)ccc1c1[nH]c(S(=O)(=O)C(F)(F)F)nc21 [Example 6, 6,9-Dimethoxy-2-(trifluoromethylsulfonyl)-1H-phenanthro-[9,10-d]imidazole] | 29
